Results on 16 molecules are retold here after patent US11999727B2 (Tango Therapeutics, Inc., priority 2020, dated 2024).

Experiment [1] relates to HAP1 MTAP-intact cell line. The experiment is described as follows: SDMA in-cell western assay, HAP1 MTAP-intact. Format: cell-based. As to conditions: Homo sapiens. The procedure, abridged: (§1)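 Readout: in-cell western detection of SDMA. Cells: HAP1 expressing endogenous MTAP and an MTAP-null HAP1 counterpart. Output: IC50.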
The subject of experiment [2] is HAP1 MTAP-deleted cell line. Put plainly: SDMA in-cell western assay, HAP1 MTAP-deleted. As to conditions: for IC50: Homo sapiens; for MTAP intact/deleted ratio: IC50 ratio HAP1 MTAP-intact / HAP1 MTAP-deleted, SDMA in-cell western. Format: cell-based. The procedure, abridged:
as §1

Experiment [3] addresses T1, PRMT5 (Homo sapiens, UniProt O14744).
T1 construct: purchased Viva (custom protein)
Put plainly: PRMT5 biochemical IC50 assay with SAM as cofactor. Particulars: PRMT5, SAM as cofactor; read-out: SAM IC50.

The test system of experiment [4] is HAP1 MTAP-deleted cell line. The experiment is described as follows: Viability assay, MTAP-deleted cell line. Format: cell-based. Particulars: Homo sapiens. The source says: Table 1 additionally indicates IC50 values in a viability assay for the MTAP-deleted cell line (column 10), indicating the effect of treatment with compound on cell survival.
For experiment [5], the target named is T1, PRMT5. Put plainly: PRMT5 biochemical IC50 assay with MTA as cofactor. As to conditions: PRMT5, MTA as cofactor; read-out: MTA IC50.
Experiment [6] concerns the target T1, PRMT5. Put plainly: PRMT5 biochemical IC50 assay with no cofactor. As to conditions: PRMT5, no cofactor. An excerpt:
Table 1 indicates IC50 values (μM) against PRMT5 for exemplary compounds in the presence of SAM as cofactor, with no cofactor, and with MTA as cofactor, respectively (columns 4-6). […] Ki values can be calculated from the IC50 values as described in the Examples section. As detailed in the Examples section, for the assay performed in the presence of SAM, IC50=Ki×1.5 (Ki=IC50/1.5).

The mark [7] stands for this setting: HAP1, SDMA in-cell western, HAP1 MTAP-intact, read-out: MTAP HAP1 intact IC50.
Setting [8] is: HAP1, SDMA in-cell western, HAP1 MTAP-deleted, read-out: HAP 1 MTAP deleted IC50.
Where [9] appears, read: HAP1, viability assay, MTAP-deleted cell line, read-out: HAP1 MTAP deleted viability.
The mark [10] stands for this setting: HAP1, SDMA in-cell western, HAP1 MTAP-deleted, read-out: HAP1 MTAP deleted IC50.
The mark [11] stands for this setting: HAP1, viability, HAP1 MTAP-deleted cell line, read-out: HAP1 MTAP deleted viability.
The mark [12] stands for this setting: read-out: No Cofactor/ rel IC50.
Where [13] appears, read: HAP1, viability assay, HAP1 MTAP-deleted, read-out: HAP1 MTAP deleted viability.

Read-outs that look alike come from different tables or passages of the source.

T1 sequence (O14744 whole entry): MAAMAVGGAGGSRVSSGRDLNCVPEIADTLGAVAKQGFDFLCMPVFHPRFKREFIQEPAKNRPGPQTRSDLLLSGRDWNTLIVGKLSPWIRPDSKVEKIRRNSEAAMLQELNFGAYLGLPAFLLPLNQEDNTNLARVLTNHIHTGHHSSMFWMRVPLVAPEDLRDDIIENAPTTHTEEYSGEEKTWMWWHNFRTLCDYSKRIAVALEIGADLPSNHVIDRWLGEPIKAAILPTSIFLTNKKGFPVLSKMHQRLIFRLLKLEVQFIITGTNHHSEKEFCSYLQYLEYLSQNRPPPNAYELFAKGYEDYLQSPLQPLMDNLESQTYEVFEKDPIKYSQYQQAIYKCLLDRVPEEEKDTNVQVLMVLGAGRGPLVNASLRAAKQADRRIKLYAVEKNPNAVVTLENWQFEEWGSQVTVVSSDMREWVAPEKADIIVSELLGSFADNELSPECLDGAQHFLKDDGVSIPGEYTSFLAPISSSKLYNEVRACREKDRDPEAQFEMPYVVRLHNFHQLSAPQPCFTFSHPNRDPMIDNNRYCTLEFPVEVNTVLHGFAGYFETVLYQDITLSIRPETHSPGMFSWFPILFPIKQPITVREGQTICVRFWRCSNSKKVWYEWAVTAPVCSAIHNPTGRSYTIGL
T1 sequence (Q9BQA1 whole entry partner): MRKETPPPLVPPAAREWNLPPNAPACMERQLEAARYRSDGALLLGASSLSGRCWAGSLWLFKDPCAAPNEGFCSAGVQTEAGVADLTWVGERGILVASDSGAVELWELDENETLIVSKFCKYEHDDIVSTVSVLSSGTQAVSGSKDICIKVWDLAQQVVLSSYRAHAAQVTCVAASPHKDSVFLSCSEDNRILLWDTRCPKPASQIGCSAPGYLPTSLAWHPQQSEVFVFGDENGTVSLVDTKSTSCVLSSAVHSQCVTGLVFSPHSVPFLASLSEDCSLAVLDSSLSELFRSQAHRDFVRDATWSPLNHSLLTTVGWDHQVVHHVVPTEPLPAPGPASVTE

For the molecule `COc1ncc(NC(=O)C(=O)N2C[C@@H](C)CC[C@@H]2c2cscn2)cc1C(N)=O` (single isomer, unassigned) [Compound 1033], the IC50 in experiment [1] (setting [7]) was over 1000 nM; in experiment [2] (setting [8]) it was over 1000 nM; on PRMT5 [3], over 500 nM; in experiment [4] (setting [9]) it was over 10000 nM; at PRMT5 [5] it was over 500 nM; on PRMT5 [6] (read-out: No Cofactor/rel IC50), over 500 nM. Also, the MTAP intact/deleted ratio result in experiment [2] was “B (an IC50 ratio greater than or equal to 3 fold but lower than 10 fold)”.
In the case of `CNS(=O)(=O)c1cccc([C@@H]2CC[C@@H](C)CN2C(=O)C(=O)Nc2cncc(C(N)=O)c2)c1` (racemic) [Compound 666, 5-[[2-[(2S,5R)-5-methyl-2-[3-(methylsulfamoyl)phenyl]-1-piperidyl]-2-oxo-acetyl]amino]pyridine-3-carboxamide], the IC50 is over 1000 nM in experiment [1] (setting [7]); over 1000 nM in experiment [2] (setting [8]); 50 to 500 nM on PRMT5 [3]; over 10000 nM in experiment [4] (HAP1, viability IC50, MTAP-deleted cell line, read-out: HAP1 MTAP deleted viability); under 50 nM at PRMT5 [5]; 50 to 500 nM at PRMT5 [6] (read-out: No Cofactor/rel IC50).
As to `CNc1ccc([C@H]2CC[C@@H](C)CN2C(=O)C(=O)Nc2cnc(OC)c(C(N)=O)c2)cn1` (single isomer, unassigned) [Compound 467], the IC50 is over 1000 nM in experiment [1] (setting [7]); over 500 nM at PRMT5 [3]; over 10000 nM in experiment [4] (setting [9]); over 500 nM at PRMT5 [5]; over 500 nM at PRMT5 [6] (read-out: No Cofactor/rel IC50). In experiment [2], the MTAP intact/deleted ratio result is given as “C (an IC50 ratio of less than 3 fold)”.
`CC(=O)N[C@H]1CC[C@@H]([C@@H]2CC[C@@H](C)CN2C(=O)C(=O)Nc2cnc(N)c(C)c2)CC1` (single isomer, unassigned) [Compound 281]: the IC50 is over 1000 nM in experiment [1] (setting [7]); 100 to 1000 nM in experiment [2] (setting [10]); over 500 nM at PRMT5 [3]; over 10000 nM in experiment [4] (setting [9]); 50 to 500 nM on PRMT5 [5]; over 500 nM at PRMT5 [6] (read-out: No Cofactor/rel IC50). Also, the MTAP intact/deleted ratio result in experiment [2] is “A (an IC50 ratio greater than or equal to 10 fold)”.
`CCc1cc(NC(=O)C(=O)N2C[C@@H](C)CC[C@@H]2c2ccc(N3CCN(C)[C@H](C)C3)nc2)cnc1N` (single isomer, unassigned) [Compound 1263]: the IC50 in experiment [1] (setting [7]) is 100 to 1000 nM; in experiment [2] (setting [8]), under 100 nM; on PRMT5 [3], 50 to 500 nM; in experiment [4] (setting [11]), under 1000 nM; on PRMT5 [5], under 50 nM; on PRMT5 [6] (setting [12]) it was over 500 nM. For the same molecule, the “MTAP intact/deleted ratio” value in experiment [2] is “A (an IC50 ratio greater than or equal to 10 fold)”.
`Cc1cc(NC(=O)C(=O)N2C[C@H](C)CC[C@H]2c2ccc3[nH]nc(N)c3c2)cnc1C` (single isomer, unassigned) [Compound 948]: the IC50 was over 1000 nM in experiment [1] (setting [7]); under 100 nM in experiment [2] (setting [8]); 50 to 500 nM at PRMT5 [3]; under 1000 nM in experiment [4] (setting [9]); under 50 nM at PRMT5 [5]; 50 to 500 nM on PRMT5 [6] (read-out: No Cofactor/rel IC50). Also, the MTAP intact/deleted ratio entry in experiment [2] is recorded as “A (an IC50 ratio greater than or equal to 10 fold)”.
Consider `C[C@@H]1CC[C@@H](c2ccc(Cn3ccnc3)cc2)N(C(=O)C(=O)Nc2cncc(C(N)=O)c2)C1` (racemic) [Compound 238, rac-5-{2-[(2R,5S)-2-{4-[(1H-Imidazol-1-yl)methyl]phenyl}-5-methylpiperidin-1-yl]-2-oxoacetamido}pyridine-3-carboxamide], for which the IC50 is over 1000 nM in experiment [1] (setting [7]); 100 to 1000 nM in experiment [2] (setting [10]); 50 to 500 nM at PRMT5 [3]; 1000 to 10000 nM in experiment [4] (setting [9]); under 50 nM at PRMT5 [5]; 50 to 500 nM on PRMT5 [6] (read-out: No Cofactor/rel IC50). The MTAP intact/deleted ratio result in experiment [2] was “A (an IC50 ratio greater than or equal to 10 fold)”.
With `CNc1nc2cc([C@@H]3CC[C@@H](C)CN3C(=O)C(=O)Nc3cncc(C(N)=O)c3)ccc2s1` (single isomer, unassigned) [Compound 877], the IC50 is over 1000 nM in experiment [1] (setting [7]); under 100 nM in experiment [2] (setting [10]); 50 to 500 nM at PRMT5 [3]; under 1000 nM in experiment [4] (setting [13]); under 50 nM on PRMT5 [5]; 50 to 500 nM on PRMT5 [6] (read-out: No Cofactor/rel IC50). Further, the MTAP intact/deleted ratio entry in experiment [2] is “A (an IC50 ratio greater than or equal to 10 fold)”.
As to `COc1ncc(NC(=O)C(=O)N2C[C@H](C)CC[C@@H]2c2ccccc2)cc1C(N)=O` (single isomer, unassigned) [Compound 308], the IC50 was over 1000 nM in experiment [1] (HAP1, read-out: MTAP HAP1 intact IC50); 100 to 1000 nM in experiment [2] (HAP1, read-out: HAP1 MTAP deleted IC50); 50 to 500 nM on PRMT5 [3]; over 10000 nM in experiment [4] (HAP1, read-out: HAP1 MTAP deleted viability); under 50 nM at PRMT5 [5]; over 500 nM on PRMT5 [6] (read-out: No Cofactor/rel IC50). Moreover, the MTAP intact/deleted ratio entry in experiment [2] is “A (an IC50 ratio greater than or equal to 10 fold)”.
Consider `COc1ncc(NC(=O)C(=O)N2C[C@@H](C)CC[C@@H]2c2ccc(C(N)=O)s2)cc1C(N)=O` (single isomer, unassigned) [Compound 837], for which the IC50 is over 1000 nM in experiment [1] (setting [7]); under 100 nM in experiment [2] (setting [10]); 50 to 500 nM at PRMT5 [3]; under 1000 nM in experiment [4] (setting [13]); under 50 nM on PRMT5 [5]; under 50 nM at PRMT5 [6] (read-out: No Cofactor/rel IC50). Besides, in experiment [2], the MTAP intact/deleted ratio result was “A (an IC50 ratio greater than or equal to 10 fold)”.
On to `CCc1cc(NC(=O)C(=O)N2C[C@H](C)CC[C@H]2c2ccc(C)nc2)cnc1N` (single isomer, unassigned) [Compound 756], for which the IC50 was over 1000 nM in experiment [1] (setting [7]); over 1000 nM in experiment [2] (setting [10]); over 500 nM at PRMT5 [3]; over 10000 nM in experiment [4] (setting [13]); over 500 nM on PRMT5 [5]; over 500 nM at PRMT5 [6] (read-out: No Cofactor/rel IC50). Besides, the MTAP intact/deleted ratio entry in experiment [2] is listed as “B (an IC50 ratio greater than or equal to 3 fold but lower than 10 fold)”.
With `C[C@H]1CC[C@H](c2ccc3sc(CCN4CCCC4)nc3c2)N(C(=O)C(=O)Nc2cnc(N)c(C3COC3)c2)C1` [Compound 1379, N-(6-amino-5-(oxetan-3-yl)pyridin-3-yl)-2-((2R,5S)-5-methyl-2-(2-(2-(pyrrolidin-1-yl)ethyl)benzo[d]thiazol-5-yl)piperidin-1-yl)-2-oxoacetamide], the IC50 in experiment [1] (setting [7]) is under 100 nM; in experiment [2] (setting [8]), under 100 nM; on PRMT5 [3], 50 to 500 nM; in experiment [4] (setting [11]) it was under 1000 nM; on PRMT5 [5], under 50 nM; on PRMT5 [6] (setting [12]), 50 to 500 nM. Moreover, the “MTAP intact/deleted ratio” value in experiment [2] was “A (an IC50 ratio greater than or equal to 10 fold)”.
As for `CCc1cc(NC(=O)C(=O)N2C[C@@H](C)CC[C@@H]2c2ccn(-c3cc[nH]n3)n2)cnc1N` (single isomer, unassigned) [Compound 913], the IC50 in experiment [1] (setting [7]) was over 1000 nM; in experiment [2] (setting [8]) it was over 1000 nM; at PRMT5 [3] it was over 500 nM; in experiment [4] (setting [9]) it was over 10000 nM; at PRMT5 [5], over 500 nM; on PRMT5 [6] (read-out: No Cofactor/rel IC50) it was over 500 nM. Moreover, the MTAP intact/deleted ratio entry in experiment [2] was “C (an IC50 ratio of less than 3 fold)”.
Consider `Cc1cc(NC(=O)C(=O)N2C[C@H](C)CC[C@@H]2C)cnc1N` (racemic) [Compound 168, N-(6-amino-5-methyl-3-pyridyl)-2-[(2S,5R)-2,5-dimethyl-1-piperidyl]-2-oxo-acetamide], for which the IC50 in experiment [1] (setting [7]) was over 1000 nM; in experiment [2] (setting [8]), over 1000 nM; at PRMT5 [3], 50 to 500 nM; in experiment [4] (setting [9]), over 10000 nM; at PRMT5 [5], 50 to 500 nM; at PRMT5 [6] (setting [12]), 50 to 500 nM. For the same molecule, in experiment [2], the “MTAP intact/deleted ratio” value is listed as “C (an IC50 ratio of less than 3 fold)”.
Regarding `Cc1cc(NC(=O)C(=O)N2C[C@H](C)CC[C@H]2c2cccc(N(C)C)c2)cnc1N` (single isomer, unassigned) [Compound 386], the IC50 in experiment [1] (setting [7]) is 100 to 1000 nM; in experiment [2] (setting [10]), under 100 nM; at PRMT5 [3] it was 50 to 500 nM; in experiment [4] (setting [9]) it was under 1000 nM; on PRMT5 [5], under 50 nM; at PRMT5 [6] (read-out: No Cofactor/rel IC50), under 50 nM. Besides, in experiment [2], the MTAP intact/deleted ratio entry was “A (an IC50 ratio greater than or equal to 10 fold)”.
Take `COc1ncc(NC(=O)C(=O)N2C[C@@H](C)CC[C@@H]2c2ccc3sc(C(F)(F)F)nc3c2)cc1C(N)=O` (single isomer, unassigned) [Compound 1024]: the IC50 in experiment [1] (setting [7]) is 100 to 1000 nM; in experiment [2] (setting [8]), under 100 nM; at PRMT5 [3], 50 to 500 nM; in experiment [4] (setting [9]) it was under 1000 nM; on PRMT5 [5], under 50 nM; on PRMT5 [6] (read-out: No Cofactor/rel IC50), under 50 nM. The MTAP intact/deleted ratio entry in experiment [2] is listed as “A (an IC50 ratio greater than or equal to 10 fold)”.
